In the experiment the test system is 4T1Luc2000 mouse mammary carcinoma cells. Briefly: Osteolytic activity in the 4T1Luc2000 assay (intra-tibial injection of tumor cells). Type of experiment: in vivo, Athymic Balb\c nude, female mice. The note with it: 50 mg/kg p.o. twice daily, in combination with Zoledronic Acid 100 ug/kg s.c. twice weekly; compared with Zoledronic Acid single treatment. The method, then:
Intra-Tibial Injection of 4T1Luc2000 Mouse Mammary Carcinoma Cells:
Athymic Balb\c nude, female mice (Spezialzuchten, Stein, Switzerland) are anaesthetized by i.p. administration of […] ketarom: a mixture of 100 mg/kg Ketalar® 50 (Parker-Davis, Zurich, Switzerland) and 10 mg/kg xylazine (Rompun®, Bayer, Lyssach, Switzerland). Using a 30 gauze needle a cell suspension of […] in […] of HBSS (Invitrogen, Basel Switzerland) is injected through the articular cartilage and epiphysis into the tibia. In total, 48 animals in 6 groups, 8 animals each, are used in this study. […]
Peripheral Quantitative Computed Tomography (pQCT), End-Point Determination:
Total, cortical, and cancellous bone mass and geometry are monitored using an XCT-Research SA+ (Stratec-Norland, Pforzheim, Germany) fitted with a 0.5 mm collimator. […] Slices located 2, 3, 4, and 5 mm distal from the intercondylar tubercle in the proximal tibia metaphysis are analysed. […]
3D structural parameters of cancellous bone are measured non-invasively by microCT as described. […] A region of 200 slices at a position of 1 mm below the growth plate (secondary spongiosa) corresponding to the site of injection of the 4T1luc2000 cells is measured at a nominal resolution of approximately 15 μm (FIG. 3). […]
All results from the bone studies are expressed as mean *standard error (SEM). […]

On to `CCCN1CCC(c2ccc(C(=O)NC3(C(=O)NCC#N)CCCCC3)cc2)CC1` [N-[1-(Cyanomethyl-carbamoyl)-cyclohexyl]-4-(1-propyl-piperidin-4-yl)-benzamide], for which the anti-osteolytic activity result is listed as “additive anti-osteolytic activity which is superior to Zoledronic Acid single treatment”.

The values above are taken from patent US20060281714A1, “Combinations of a cathepsin k inhibitor and a bisphosphonate in the treatment of bone metastasis, tumor growth and tumor-induced bone loss” (priority 2003, published 2006).
